Assay: Solubility evaluation of electrochromic compound
Conditions: dissolved to saturation, filtered through 0.5 μm PTFE filter, residue weighed; for Solubility, solvent TFP: 2,2,3,3-tetrafluoropropanol (TFP); for Solubility, solvent DMF: N,N-dimethylformamide (DMF)
Text: The residue was filtered with a PTFE filter having the average pore diameter of 0.5 μm, and the solvent was dried under the reduced pressure. Then, the residue was weight to calculate an amount of the solute dissolved in each solvent.

SMILES	Solubility, solvent TFP	Solubility, solvent DMF
O=P(O)(O)CCCCCCCC[n+]1ccc(-c2ccc(-c3cccs3)cc2)cc1.[Br-] [Compound 1b]	A (the solubility of 5% by mass or greater was attained relative to each solvent)	A (the solubility of 5% by mass or greater was attained relative to each solvent)
O=P(O)(O)CCCCCCCC[n+]1ccc(-c2ccc(-c3cncs3)cc2)cc1.[Br-] [Compound 2b]	A (the solubility of 5% by mass or greater was attained relative to each solvent)	A (the solubility of 5% by mass or greater was attained relative to each solvent)
O=P(O)(O)CCCCCCCC[n+]1ccc(-c2ccc(-c3nccs3)cc2)cc1.[Br-] [Compound 3b]	A (the solubility of 5% by mass or greater was attained relative to each solvent)	A (the solubility of 5% by mass or greater was attained relative to each solvent)
COc1nc(OC)nc(-c2ccc(-c3cc[n+](CCCCCCCCP(=O)(O)O)cc3)cc2)n1.[Br-] [Compound 4b]	A (the solubility of 5% by mass or greater was attained relative to each solvent)	A (the solubility of 5% by mass or greater was attained relative to each solvent)
O=P(O)(O)CCCCCCCC[n+]1ccc(-c2ccc(-c3nc(-c4ccccc4)nc(-c4ccccc4)n3)cc2)cc1.[Br-] [Compound 5b]	A (the solubility of 5% by mass or greater was attained relative to each solvent)	A (the solubility of 5% by mass or greater was attained relative to each solvent)
O=P(O)(O)CCCCCCCC[n+]1ccc(-c2ccc(-c3ncccn3)cc2)cc1.[Br-] [Compound 6b]	A (the solubility of 5% by mass or greater was attained relative to each solvent)	A (the solubility of 5% by mass or greater was attained relative to each solvent)
O=P(O)(O)CCCCCCCC[n+]1cccc(-c2ccc(-c3cccs3)cc2)c1 [Compound 12b]	A (the solubility of 5% by mass or greater was attained relative to each solvent)	A (the solubility of 5% by mass or greater was attained relative to each solvent)

— patent US9932522B2, “Electrochromic compound, electrochromic composition, display element, and dimming element” (Ricoh Company, Ltd., priority 2014, dated 2018)
